Common to all, as to assay type: in vivo
For assay [1], the system named is green peach aphid (Myzus persicae). Nature of the assay: Myzus persicae test (oil seed rape seed treatment). As to the method:
(§1) The expected efficacy of a given combination of two compounds is calculated as follows (see Colby, S. R., “Calculating Synergistic and antagonistic Responses of Herbicide Combinations”, Weeds 15, pp. 20-22, 1967):
(§2) If • X is the efficacy expressed in % mortality of the untreated control for test compound A at a concentration of m ppm respectively m g/ha, • Y is the efficacy expressed in % mortality of the untreated control for test compound B at a concentration of n ppm respectively n g/ha, • E is the efficacy expressed in % mortality of the untreated control using the mixture of A and B at m and n ppm respectively m and n g/ha, then is
(§3) If the observed insecticidal efficacy of the combination is higher than the one calculated as “E”, then the combination of the two compounds is more than additive, i.e., there is a synergistic effect.
(§4) If not mentioned otherwise, the crystalline modification I of 4-{[(6-chloropyrid-3-yl)methyl](methyl)amino}furan-2(5H)-one has been prepared as a water-dispersible or water-soluble powder in an active ingredient concentration of 70% (wt/wt) involving the following formulation auxiliaries, whereas the amount of auxiliaries sums up to 100 wt. %:
(§5) The auxiliaries were mixed with the appropriate amount of the crystalline modification I of 4-{[(6-chloropyrid-3-yl)methyl](methyl)amino}furan-2(5H)-one. There is no water or solvent added. To enable the dry mixture to stick on the seed, the seed were treated with a minimal amount of water, namely […] for 2 g canola seeds, and 800 μl für 20 g cotton seeds
Seeds of Oil seed rape were treated with the compounds or mixtures and sown. Ca. 35 days after germination the plants were infested with a mixed population of the green peach aphid (Myzus persicae). After the specified period of time, the mortality in % is determined. 100% means that all the aphids have been killed; 0% means that none of the aphids have been killed.

The test system of assay [2] is cotton aphid (Aphis gossypii). In words: Aphis gossypii test (cotton seed treatment). The protocol: as §1, §2, §3, §4, §5
Cotton seeds were treated with the compounds or mixtures and sown. 10 days after germination the plants were infested with a mixed population of the cotton aphid (Aphis gossypii). After the specified period of time, the mortality in % is determined. 100% means that all the aphids have been killed; 0% means that none of the aphids have been killed.

Assay [3] concerns larvae of the mustard beetle (Phaedon cochleariae). In words: Phaedon cochleariae larvae test (oil seed rape seed treatment). As to the method: as §1, §2, §3, §4, §5
Seeds of Oil seed rape were treated with the compounds or mixtures and sown. Ca. 35 days after germination the plants were infested with a larvae of the mustard beetle (Phaedon cochleariae). After the specified period of time, the mortality in % is determined. 100% means that all the beetle larvae have been killed; 0% means that none of the beetle larvae have been killed.

`CN(Cc1ccc(Cl)nc1)C1=CC(=O)OC1` [4-{[(6-chloropyrid-3-yl)methyl](methyl)amino}furan-2(5H)-one]: the “Kill rate [in % after 2 days]” value in assay [1] (0.01 mg ai/grain) is on record as 10%; in assay [2] (0.01 mg ai/grain), 63%; in assay [2] (0.025 mg ai/grain), 80%. Moreover, the “Kill rate [in % after 7 days]” value in assay [1] (0.01 mg ai/grain) was 0%. For the same compound, the “Kill rate [in % after 3 days]” value in assay [1] (0.025 mg ai/grain) turned out to be 0%. For the same compound, the “Kill rate [in % after 1 day]” value in assay [2] (0.025 mg ai/grain) worked out at 0%. The “Kill rate [in % after 4 days]” value in assay [3] (0.01 mg ai/grain) came out at 0%. The “Kill rate [in % after 5 days]” value in assay [3] (0.025 mg ai/grain) came out at 5.56%.

For the compound `Cn1cc(C(=O)Nc2ccc(F)cc2-c2ccc(Cl)c(Cl)c2)c(C(F)F)n1` [Bixafen], the “Kill rate [in % after 2 days]” value in assay [2] (0.5 mg ai/grain) came to 0%.

For `CCC1(C(=O)N[C@H](C)c2ccc(Cl)cc2)C(C)C1(Cl)Cl` (some centres unmarked) [Carpropamid], the “Kill rate [in % after 1 day]” value in assay [2] (0.5 mg ai/grain) was 0%.

For the compound `CSC1=N[C@@](C)(c2ccccc2)C(=O)N1Nc1ccccc1` [Fenamidone], in assay [1] (0.5 mg ai/grain), the “Kill rate [in % after 3 days]” value stood at 0% and the “Kill rate [in % after 7 days]” value is 0%.

`CC1(C(=O)Nc2ccc(O)c(Cl)c2Cl)CCCCC1` [Fenhexamid]: the “Kill rate [in % after 2 days]” value in assay [2] (0.5 mg ai/grain) was determined as 0%.

Take `N#Cc1c[nH]cc1-c1cccc2c1OC(F)(F)O2` [Fluodioxonil, Fludioxonil]: the “Kill rate [in % after 4 days]” value in assay [3] (05 mg ai/grain (so in the source)) is given as 0%.

As for `O=C(NCc1ncc(C(F)(F)F)cc1Cl)c1c(Cl)cccc1Cl` [Fluopicolide], the “Kill rate [in % after 5 days]” value in assay [3] (1 mg ai/grain) is 0%.

`CCO[PH](=O)O` [Fosetyl-Al]: the “Kill rate [in % after 2 days]” value in assay [1] (1 mg ai/grain) is given as 0%.

In the case of `CON=C(C(=O)OC)c1ccccc1CON=C(C)c1cccc(C(F)(F)F)c1` [Trifloxystrobin], in assay [2] (0.5 mg ai/grain), the “Kill rate [in % after 1 day]” value was 0%.

(Values after US20130317067A1, “PESTICIDAL MIXTURES WITH IMPROVED PROPERTIES” (BAYER INTELLECTUAL PROPERTY GMBH, priority 2010, published 2013).)
